pIC50: −log10 of the molar value.
Key:
P388 = assay: Cytotoxicity against mouse P388 cells; format: functional, cell-based
A549 = assay: Cytotoxicity against human A549 cells; format: functional, cell-based

With `C[C@@H]1CN2C[C@H]3CCC4=C5[C@@](O)(CC[C@@]56C(=O)[C@@H]1C[C@@H]2[C@@]36C)CC4=O` [DAPHNIYUNNINE D] the pIC50 (P388) was 5.52 and the pIC50 (A549) was 6.22.

From ChEMBL document CHEMBL1157308, “Daphniyunnines A-E, alkaloids from Daphniphyllum yunnanense” (J Nat Prod, 2006)
